Assay results taken from paper PMC5218480 (PLoS ONE, 2017).

System: MV-4-11 cells
Test: Gene expression microarray analysis (Affymetrix PrimeView) and GSEA
Assay type: cell-based, human
Set-up: RFU PODN (11730768_x_at) / Fold change /veh PODN (11730768_x_at) / RFU LINC00158 (11744669_a_at) / Fold change /veh LINC00158 (11744669_a_at) / RFU DUSP10 (11751237_a_at) / Fold change /veh DUSP10 (11751237_a_at) / RFU ID3 (11757404_x_at) / Fold change /veh ID3 (11757404_x_at) / RFU PLEKHG5 (11737974_s_at) / Fold change /veh PLEKHG5 (11737974_s_at) / RFU LRRC4B (11730491_at) / Fold change /veh LRRC4B (11730491_at) / RFU GIMAP4 (11747438_a_at) / Fold change /veh GIMAP4 (11747438_a_at) / RFU KRT8 (11758183_x_at) / Fold change /veh KRT8 (11758183_x_at) / RFU CNN1 (11734310_a_at) / Fold change /veh CNN1 (11734310_a_at) / RFU VPS37D (11726825_at) / Fold change /veh VPS37D (11726825_at) / RFU C10orf10 (11716522_x_at) / Fold change /veh C10orf10 (11716522_x_at) / RFU KIR2DL2 /// KIR2DL4 /// KIR2DL5A /// KIR2DL5B /// KIR2DS1 /// KIR2DS2 /// KIR2DS3 /// KIR2DS4 /// KIR3DL3 /// KIR3DL3 /// KIR3DS1 (11738374_at) / Fold change /veh KIR2DL2 /// KIR2DL4 /// KIR2DL5A /// KIR2DL5B /// KIR2DS1 /// KIR2DS2 /// KIR2DS3 /// KIR2DS4 /// KIR3DL3 /// KIR3DL3 /// KIR3DS1 (11738374_at) / RFU C1QL1 (11718748_at) / Fold change /veh C1QL1 (11718748_at) / RFU TMPRSS4 (11747572_a_at) / Fold change /veh TMPRSS4 (11747572_a_at) / RFU HAMP (11756126_x_at) / Fold change /veh HAMP (11756126_x_at) / RFU RNFT2 (11725882_a_at) / Fold change /veh RNFT2 (11725882_a_at) / RFU NR4A2 (11747474_a_at) / Fold change /veh NR4A2 (11747474_a_at) / RFU ABCC12 (11746883_a_at) / Fold change /veh ABCC12 (11746883_a_at) / RFU TMEM136 (11760407_x_at) / Fold change /veh TMEM136 (11760407_x_at) / RFU CLDN22 /// WWC2 (11732394_at) / Fold change /veh CLDN22 /// WWC2 (11732394_at) / RFU HLA-DPB1 (11760878_x_at) / Fold change /veh HLA-DPB1 (11760878_x_at) / RFU SPINT1 (11716480_a_at) / Fold change /veh SPINT1 (11716480_a_at) / RFU GAP43 (11754022_s_at) / Fold change /veh GAP43 (11754022_s_at) / RFU A4GNT (11735810_at) / Fold change /veh A4GNT (11735810_at) / RFU PRB3 (11715151_x_at) / Fold change /veh PRB3 (11715151_x_at) / RFU TUBB4B (11761932_at) / Fold change /veh TUBB4B (11761932_at) / RFU CAPN14 (11732068_a_at) / Fold change /veh CAPN14 (11732068_a_at) / RFU TMCC2 (11721928_a_at) / Fold change /veh TMCC2 (11721928_a_at) / RFU IRGQ (11745062_a_at) / Fold change /veh IRGQ (11745062_a_at) / RFU FAM174B (11720279_a_at) / Fold change /veh FAM174B (11720279_a_at) / RFU TMPRSS4 (11748680_a_at) / Fold change /veh TMPRSS4 (11748680_a_at) / RFU FAM212B (11763350_a_at) / Fold change /veh FAM212B (11763350_a_at) / RFU PLEKHG5 (11743358_a_at) / Fold change /veh PLEKHG5 (11743358_a_at) / RFU ZSCAN30 (11745921_a_at) / Fold change /veh ZSCAN30 (11745921_a_at) / RFU CMKLR1 (11741424_a_at) / Fold change /veh CMKLR1 (11741424_a_at) / RFU LOC101060620 /// MAPK8IP1 (11723275_at) / Fold change /veh LOC101060620 /// MAPK8IP1 (11723275_at) / RFU SPTSSB (11747773_x_at) / Fold change /veh SPTSSB (11747773_x_at) / RFU PRSS12 (11739890_at) / Fold change /veh PRSS12 (11739890_at) / RFU BIN1 (11741810_x_at) / Fold change /veh BIN1 (11741810_x_at) / RFU WNT11 (11732464_a_at) / Fold change /veh WNT11 (11732464_a_at) / RFU C10orf10 (11716521_a_at) / Fold change /veh C10orf10 (11716521_a_at) / RFU C5orf56 (11738089_at) / Fold change /veh C5orf56 (11738089_at) / RFU CYB561 (11721691_x_at) / Fold change /veh CYB561 (11721691_x_at) / RFU ANKRD19P (11752326_a_at) / Fold change /veh ANKRD19P (11752326_a_at) / RFU OR2T12 /// OR2T33 /// OR2T8 (11738714_s_at) / Fold change /veh OR2T12 /// OR2T33 /// OR2T8 (11738714_s_at) / RFU VCAN (11748164_a_at) / Fold change /veh VCAN (11748164_a_at) / RFU JSRP1 (11732532_at) / Fold change /veh JSRP1 (11732532_at) / RFU KRTAP10-11 (11738290_x_at) / Fold change /veh KRTAP10-11 (11738290_x_at) / RFU MYO3A (11730013_a_at) / Fold change /veh MYO3A (11730013_a_at) / RFU EBF3 (11725865_a_at) / Fold change /veh EBF3 (11725865_a_at) / RFU CAMK2N1 (11719241_x_at) / Fold change /veh CAMK2N1 (11719241_x_at) / RFU C5orf56 (11738088_a_at) / Fold change /veh C5orf56 (11738088_a_at) / RFU OLFML3 (11715873_a_at) / Fold change /veh OLFML3 (11715873_a_at) / RFU LOC100653217 /// NTM (11731650_a_at) / Fold change /veh LOC100653217 /// NTM (11731650_a_at) / RFU MAPK11 (11762145_a_at) / Fold change /veh MAPK11 (11762145_a_at) / RFU FIZ1 (11724087_x_at) / Fold change /veh FIZ1 (11724087_x_at) / RFU OASL (11726364_x_at) / Fold change /veh OASL (11726364_x_at) / RFU SOX15 (11748057_x_at) / Fold change /veh SOX15 (11748057_x_at) / RFU CD79A (11719716_a_at) / Fold change /veh CD79A (11719716_a_at) / RFU HIST1H1D (11736915_at) / Fold change /veh HIST1H1D (11736915_at) / RFU CASKIN2 (11723855_a_at) / Fold change /veh CASKIN2 (11723855_a_at) / RFU LOC730098 (11760151_x_at) / Fold change /veh LOC730098 (11760151_x_at) / RFU OR4N2 (11742367_at) / Fold change /veh OR4N2 (11742367_at) / RFU PRRT2 (11749266_a_at) / Fold change /veh PRRT2 (11749266_a_at) / RFU SNX32 (11753110_a_at) / Fold change /veh SNX32 (11753110_a_at) / RFU CDHR5 (11726645_a_at) / Fold change /veh CDHR5 (11726645_a_at) / RFU RCAN1 (11760418_a_at) / Fold change /veh RCAN1 (11760418_a_at) / RFU FAM167A (11723789_a_at) / Fold change /veh FAM167A (11723789_a_at) / RFU FAM26E (11764081_at) / Fold change /veh FAM26E (11764081_at) / RFU ISYNA1 (11749810_s_at) / Fold change /veh ISYNA1 (11749810_s_at) / RFU ACY1 (11761880_at) / Fold change /veh ACY1 (11761880_at) / RFU 11764098_at / Fold change /veh 11764098_at / RFU SAMD14 (11745864_x_at) / Fold change /veh SAMD14 (11745864_x_at) / RFU NPB (11741838_a_at) / Fold change /veh NPB (11741838_a_at) / RFU TMPRSS6 (11731388_a_at) / Fold change /veh TMPRSS6 (11731388_a_at) / RFU KRTAP10-2 (11738614_at) / Fold change /veh KRTAP10-2 (11738614_at) / RFU ARHGAP8 /// PRR5-ARHGAP8 (11727945_x_at) / Fold change /veh ARHGAP8 /// PRR5-ARHGAP8 (11727945_x_at) / RFU KRTAP5-7 /// NADSYN1 (11734609_at) / Fold change /veh KRTAP5-7 /// NADSYN1 (11734609_at) / RFU RASL12 (11751679_a_at) / Fold change /veh RASL12 (11751679_a_at) / RFU CDKN2B (11736163_a_at) / Fold change /veh CDKN2B (11736163_a_at) / RFU PRF1 (11729649_at) / Fold change /veh PRF1 (11729649_at) / RFU, ZNF638 /// ZNF638-IT1 / Fold change vs veh, ZNF638 /// ZNF638-IT1 / RFU, PANK3 / Fold change vs veh, PANK3 / RFU, SH3YL1 / Fold change vs veh, SH3YL1 / RFU, ZEB2 / Fold change vs veh, ZEB2 / RFU, NRIP1 / Fold change vs veh, NRIP1 / RFU, PTTG1IP / Fold change vs veh, PTTG1IP / RFU, CAPN2 / Fold change vs veh, CAPN2 / RFU, MED14 / Fold change vs veh, MED14 / RFU, SNORA58 / Fold change vs veh, SNORA58 / RFU, C1orf63 / Fold change vs veh, C1orf63 / RFU, LRRFIP1 / Fold change vs veh, LRRFIP1 / RFU, NDUFAF7 / Fold change vs veh, NDUFAF7 / RFU, SLC12A2 / Fold change vs veh, SLC12A2 / RFU, IBTK / Fold change vs veh, IBTK / RFU, ESF1 / Fold change vs veh, ESF1 / Fold change vs veh, TMEM50B / RFU, TAOK1 / Fold change vs veh, TAOK1 / RFU, ACBD3 / Fold change vs veh, ACBD3 / RFU, TMA16 / Fold change vs veh, TMA16 / RFU, RWDD3 / Fold change vs veh, RWDD3 / RFU, BCAT1 / Fold change vs veh, BCAT1 / RFU, EDEM3 / Fold change vs veh, EDEM3 / RFU, TMEM33 / Fold change vs veh, TMEM33 / RFU, WDR75 / Fold change vs veh, WDR75 / RFU, AHCTF1 / Fold change vs veh, AHCTF1 / RFU, TFRC / Fold change vs veh, TFRC / RFU, ZDHHC17 / Fold change vs veh, ZDHHC17 / RFU, NOM1 / Fold change vs veh, NOM1 / RFU, ARL8B / Fold change vs veh, ARL8B / RFU, ZBTB11 / Fold change vs veh, ZBTB11 / RFU, TAMM41 / Fold change vs veh, TAMM41 / RFU, KIAA1704 /// LOC100996395 / Fold change vs veh, KIAA1704 /// LOC100996395 / RFU, ING1 / Fold change vs veh, ING1 / RFU, TRMT61B / Fold change vs veh, TRMT61B / RFU, FUBP3 / Fold change vs veh, FUBP3 / RFU, TP53 / Fold change vs veh, TP53 / RFU, TNKS2 / Fold change vs veh, TNKS2 / RFU, ZFP14 / Fold change vs veh, ZFP14 / RFU, ACTR2 / Fold change vs veh, ACTR2 / RFU, PPP3R1 / Fold change vs veh, PPP3R1 / RFU, PIK3R1 / Fold change vs veh, PIK3R1 / RFU, HNRNPA1 / Fold change vs veh, HNRNPA1 / RFU, RNF170 / Fold change vs veh, RNF170 / RFU, ZNF28 / Fold change vs veh, ZNF28 / RFU, RNGTT / Fold change vs veh, RNGTT / RFU, OGT / Fold change vs veh, OGT / RFU, BRD1 / Fold change vs veh, BRD1 / RFU, MARS / Fold change vs veh, MARS / RFU, ZNF655 / Fold change vs veh, ZNF655 / RFU, FAHD1 / Fold change vs veh, FAHD1 / RFU, BDP1 / Fold change vs veh, BDP1 / RFU, LRRCC1 / Fold change vs veh, LRRCC1 / RFU, ARID1A / Fold change vs veh, ARID1A / RFU, ZNF146 / Fold change vs veh, ZNF146 / RFU, ZNF330 / Fold change vs veh, ZNF330 / RFU, GPN3 / Fold change vs veh, GPN3 / RFU, C9orf123 / Fold change vs veh, C9orf123 / RFU, N4BP2L2 / Fold change vs veh, N4BP2L2 / RFU, ARFIP1 / Fold change vs veh, ARFIP1 / RFU, FAM179B / Fold change vs veh, FAM179B / RFU, BCL10 / Fold change vs veh, BCL10 / RFU, UHRF1BP1L / Fold change vs veh, UHRF1BP1L / RFU, BET1 / Fold change vs veh, BET1 / RFU, CNOT2 / Fold change vs veh, CNOT2 / RFU, ZNF268 / Fold change vs veh, ZNF268 / Fold change vs veh, ZNF507 / RFU, DGCR2 / Fold change vs veh, DGCR2 / RFU, WDSUB1 / Fold change vs veh, WDSUB1 / Fold change vs veh, HSP90B1 /// MIR3652 / RFU, ADSS / Fold change vs veh, ADSS / RFU, GK / Fold change vs veh, GK / RFU, ZNF148 / Fold change vs veh, ZNF148 / RFU, TAF9 / Fold change vs veh, TAF9 / RFU, SLC1A5 / Fold change vs veh, SLC1A5 / RFU, SLMO2 / Fold change vs veh, SLMO2 / RFU, ABCC4 / Fold change vs veh, ABCC4 / RFU, LOC101060439 /// RAP1B / Fold change vs veh, LOC101060439 /// RAP1B / RFU, RFX7 / Fold change vs veh, RFX7 / RFU, GTPBP10 / Fold change vs veh, GTPBP10 / RFU, CNEP1R1 / Fold change vs veh, CNEP1R1 / RFU, BIVM-ERCC5 /// ERCC5 / Fold change vs veh, BIVM-ERCC5 /// ERCC5 / RFU, ILF3 / Fold change vs veh, ILF3 / RFU 11762660_at / Fold change /veh 11762660_at / RFU VCAN (11757783_s_at) / Fold change /veh VCAN (11757783_s_at) / RFU DDX43 (11728927_at) / Fold change /veh DDX43 (11728927_at) / RFU KRT8 (11758188_x_at) / Fold change /veh KRT8 (11758188_x_at) / RFU NKD1 (11759106_at) / Fold change /veh NKD1 (11759106_at) / RFU SRD5A1 (11742802_a_at) / Fold change /veh SRD5A1 (11742802_a_at) / RFU TPSAB1 /// TPSB2 (11721975_s_at) / Fold change /veh TPSAB1 /// TPSB2 (11721975_s_at) / RFU GSTM3 (11746129_a_at) / Fold change /veh GSTM3 (11746129_a_at) / RFU IL23R (11737362_x_at) / Fold change /veh IL23R (11737362_x_at) / RFU TMEM51 (11727254_a_at) / Fold change /veh TMEM51 (11727254_a_at) / RFU PIWIL2 (11732686_x_at) / Fold change /veh PIWIL2 (11732686_x_at) / RFU ORM1 (11744905_x_at) / Fold change /veh ORM1 (11744905_x_at) / RFU CCDC152 (11743942_at) / Fold change /veh CCDC152 (11743942_at) / RFU ECM1 (11717891_a_at) / Fold change /veh ECM1 (11717891_a_at) / RFU IL23R (11748794_a_at) / Fold change /veh IL23R (11748794_a_at) / RFU TNFAIP8L3 (11732012_x_at) / Fold change /veh TNFAIP8L3 (11732012_x_at) / RFU MBOAT4 (11741988_at) / Fold change /veh MBOAT4 (11741988_at) / RFU 11764193_at / Fold change /veh 11764193_at / RFU TMEM53 (11763286_at) / Fold change /veh TMEM53 (11763286_at) / RFU MAGEB2 (11727129_at) / Fold change /veh MAGEB2 (11727129_at) / RFU TMEM200A (11744735_a_at) / Fold change /veh TMEM200A (11744735_a_at) / RFU CCDC152 (11751479_a_at) / Fold change /veh CCDC152 (11751479_a_at) / RFU FAM211A (11726209_a_at) / Fold change /veh FAM211A (11726209_a_at) / RFU RGS16 (11746705_a_at) / Fold change /veh RGS16 (11746705_a_at) / RFU VCAN (11755009_s_at) / Fold change /veh VCAN (11755009_s_at) / RFU RHOB (11743442_s_at) / Fold change /veh RHOB (11743442_s_at) / RFU RGS16 (11720943_a_at) / Fold change /veh RGS16 (11720943_a_at) / RFU RGS16 (11720944_at) / Fold change /veh RGS16 (11720944_at) / RFU, VPS4B / Fold change vs veh, VPS4B / RFU, CREB1 / Fold change vs veh, CREB1 / RFU, DNAJC13 / Fold change vs veh, DNAJC13 / RFU, GNAQ / Fold change vs veh, GNAQ / RFU, CDK5R1 / Fold change vs veh, CDK5R1 / RFU, ZRANB3 / Fold change vs veh, ZRANB3 / RFU, CUL4A / Fold change vs veh, CUL4A / RFU, CCNY / Fold change vs veh, CCNY / RFU, UFL1 / Fold change vs veh, UFL1 / RFU, COG3 / Fold change vs veh, COG3 / RFU, DIAPH2 / Fold change vs veh, DIAPH2 / RFU, SKA2 / Fold change vs veh, SKA2 / RFU, AFF3 / Fold change vs veh, AFF3 / RFU, LMF1 / Fold change vs veh, LMF1 / RFU, IPO11 / Fold change vs veh, IPO11 / RFU, DFFB / Fold change vs veh, DFFB / RFU, FOXP1 / Fold change vs veh, FOXP1 / RFU, CARD8 / Fold change vs veh, CARD8 / RFU, STRN3 / Fold change vs veh, STRN3 / RFU, ADK / Fold change vs veh, ADK / RFU, RASSF2 / Fold change vs veh, RASSF2 / RFU, WIPF1 / Fold change vs veh, WIPF1 / RFU, LARP1B / Fold change vs veh, LARP1B / RFU, RASA1 / Fold change vs veh, RASA1 / RFU, RB1 / Fold change vs veh, RB1 / RFU, PPFIA1 / Fold change vs veh, PPFIA1 / RFU, MAT2A / Fold change vs veh, MAT2A / RFU, CCT5 / Fold change vs veh, CCT5 / RFU, WDR92 / Fold change vs veh, WDR92 / RFU, CUX1 / Fold change vs veh, CUX1 / RFU, TTC7A / Fold change vs veh, TTC7A / RFU, TMEM135 / Fold change vs veh, TMEM135 / RFU, DEPTOR / Fold change vs veh, DEPTOR / RFU, CPM / Fold change vs veh, CPM / RFU, DNAJB6 / Fold change vs veh, DNAJB6 / RFU, CACNA2D3 / Fold change vs veh, CACNA2D3 / RFU, DTX4 / Fold change vs veh, DTX4 / RFU, TFCP2 / Fold change vs veh, TFCP2 / RFU, GMCL1 /// GMCL1P1 / Fold change vs veh, GMCL1 /// GMCL1P1 / RFU, AEBP2 / Fold change vs veh, AEBP2 / RFU, SNHG1 /// SNORD22 /// SNORD25 /// SNORD26 /// SNORD27 /// SNORD28 /// SNORD29 /// SNORD31 / Fold change vs veh, SNHG1 /// SNORD22 /// SNORD25 /// SNORD26 /// SNORD27 /// SNORD28 /// SNORD29 /// SNORD31 / Fold change (Aza/veh), C12orf56 (ProbeSet 11735607_a_at) / Fold change (ACY-1035/veh), C12orf56 (ProbeSet 11735607_a_at) / Fold change (Aza/veh), FGFR1OP (ProbeSet 11751329_s_at) / Fold change (ACY-1035/veh), FGFR1OP (ProbeSet 11751329_s_at) / Fold change (Aza/veh), VPS36 (ProbeSet 11739960_a_at) / Fold change (ACY-1035/veh), VPS36 (ProbeSet 11739960_a_at) / RFU SYPL1 (11715823_x_at) / Fold change /veh SYPL1 (11715823_x_at) / RFU IGFBP7 (11715501_s_at) / Fold change /veh IGFBP7 (11715501_s_at) / RFU REEP3 (11722064_at) / Fold change /veh REEP3 (11722064_at) / RFU IGLL1 (11728026_x_at) / Fold change /veh IGLL1 (11728026_x_at): dose or concentration left out as unconfirmed
Conditions: ProbeSet 11727545_at; LIST B

## Nc1ncn([C@@H]2O[C@H](CO)[C@@H](O)[C@H]2O)c(=O)n1 [azacitidine]
  RFU, PANK3: 82.98 RFU
